Non-standard residues stand in square brackets, D forms with d. Residues, ends and D or L forms follow the SMILES beside them. *: point of attachment. Sta = CC(C)C[C@H](N)[C@@H](O)CC(=O)O; Isovaleryl = CC(C)CC(=O)*

The target in the assay is T1, Paramecium cathepsin L isozymes (30 kDa and 33 kDa) (Paramecium tetraurelia, UniProt Q94714).
T1 construct: identical enzyme proteins were involved, with the proteins possibly only being processed differently; from tissue; host or cells: Paramecium tetraurelia mass cultures (cell homogenate)
T1 sequence (Q94714 110-314): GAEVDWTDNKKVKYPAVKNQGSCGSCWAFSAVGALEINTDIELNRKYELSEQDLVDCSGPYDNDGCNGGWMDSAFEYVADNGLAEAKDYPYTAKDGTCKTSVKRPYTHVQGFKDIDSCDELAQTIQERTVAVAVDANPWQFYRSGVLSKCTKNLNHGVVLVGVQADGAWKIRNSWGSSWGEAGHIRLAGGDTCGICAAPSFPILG
Put plainly: Effect of class-specific protease inhibitors on the purified Paramecium proteases (cathepsin L assay). The class given is biochemical. The note with it: 32P phosphorylase a as substrate. As to the method: ^32P-Phosphorylase a (approx. 5×10^4 cpm/min) was used as substrate. A test mixture (30 μl) contained 10 μM substrate, 12 mM Tris/HCl (pH 7.0), 50 μM EDTA, 10 mM 2-mercaptoethanol, 5 mM caffeine and 6.7 μg of BSA. The reaction was stopped, after incubating at 30° C. for 10 minutes, by adding 200 μl of trichloroacetic acid (20% w/v). The radioactivity of the non-precipitable peptides was determined in the supernatant following centrifugation. One unit of enzyme activity corresponds to the quantity which liberates 1 μmol of soluble ^32P-phosphopeptide/min.
All the purification steps were carried out at 4° C. The cells were homogenized in 50 mM Tris/HCl (pH 7.0), 5 mM EDTA using a French press. Cell debris were removed by centrifugation (23,000×g, 60 min; 100,000×g, 60 min). The supernatant was loaded onto a DEAE Sepharose® column which was equilibrated with 20 mM Tris/HCl (pH 7.0). About half the protease activity eluted with the flowthrough. The column was washed with 250 mM NaCl. The remaining protease activity was eluted with 450 mM KCl. After that, the active fractions were purified through a Sephacryl® S-100 HR column. The protease eluted at approximately 27 kDa. The pooled active fractions were subsequently loaded onto a mono Q column. Elution was carried out using a linear gradient (60 ml of from 100 to 350 mM NaCl). Two active proteases (30 kDa and 33 kDa) were separated in this step. Purity was examined by means of SDS-PAGE. When using ^32P phosphorylase a as substrate, the pH optimum of the two isozymes was 6.5; the temperature optimum was 56° C.
Turning to `O=C(O)CN(CCN(CC(=O)O)CC(=O)O)CC(=O)O` [EDTA], the “effect of inhibitor on protease activity” value is “no inhibitory effect”.
As to `Cc1ccc(S(=O)(=O)NC(CCCCN)C(=O)CCl)cc1` (stereo not drawn) [TLCK], the “effect of inhibitor on protease activity” value is “reduced the activity drastically”.
As for `CC(=O)N[C@@H](CC(C)C)C(=O)N[C@@H](CC(C)C)C(=O)N[C@H](C=O)CCCNC(=N)N` [leupeptin], the entry is “reduced the activity drastically”; as for `CC(C)CC(=O)N[C@H](C(=O)N[C@H](C(=O)N[C@@H](CC(C)C)[C@@H](O)CC(=O)N[C@@H](C)C(=O)N[C@@H](CC(C)C)[C@@H](O)CC(=O)O)C(C)C)C(C)C` [pepstatin] (Isovaleryl-VV[Sta]A[Sta]-OH), “no inhibitory effect”.
Consider aprotinin, for which the “effect of inhibitor on protease activity” value is “no inhibitory effect”.
As for cystatin, the entry is “reduced the activity drastically”.

Values taken from patent US6733995B2, “Cathepsin L, its prepro form and the corresponding propeptide from ciliates” (Nutrinova Nutrition Specialties & Food Ingredients GmbH, priority 1996, dated 2004).
